The target of test [1] is T1, 3-keto-steroid reductase/17-beta-hydroxysteroid dehydrogenase 7 (Homo sapiens) (UniProt P56937).
T1 sequence (whole entry): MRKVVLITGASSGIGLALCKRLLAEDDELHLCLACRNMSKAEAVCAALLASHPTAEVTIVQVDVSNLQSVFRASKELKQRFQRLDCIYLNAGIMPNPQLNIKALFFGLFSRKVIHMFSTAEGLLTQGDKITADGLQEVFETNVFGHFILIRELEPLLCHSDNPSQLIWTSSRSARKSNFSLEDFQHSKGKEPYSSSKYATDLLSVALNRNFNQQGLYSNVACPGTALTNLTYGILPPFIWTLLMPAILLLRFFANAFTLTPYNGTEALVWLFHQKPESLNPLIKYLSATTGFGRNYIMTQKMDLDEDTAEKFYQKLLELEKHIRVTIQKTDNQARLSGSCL
The following applies: HEK293, at 0.3 µM.
Description: Inhibition of human 17beta-HSD7 expressed in HEK293 cells assessed as inhibition of reduction of [14C]estrone into [14C]estradiol at 0.3 uM after 7 hrs

Test [2] deals with T1, 3-keto-steroid reductase/17-beta-hydroxysteroid dehydrogenase 7 (Homo sapiens). The following applies: HEK293, at 3 µM.
Description: Inhibition of human 17beta-HSD7 expressed in HEK293 cells assessed as inhibition of reduction of [14C]estrone into [14C]estradiol at 3 uM after 7 hrs

For the molecule `CC1(C)CC[C@@]2(CC[C@H]3[C@@H]4CCc5cc(O)c(C(N)=O)cc5[C@H]4CC[C@@]32C)OC1=O`, the inhibition in test [1] stood at 7.9%; in test [2], 23.8%.

In the case of `CC1(C)CC[C@@]2(CC[C@H]3[C@@H]4CCc5cc(OP(=O)(O)O)ccc5[C@H]4CC[C@@]32C)OC1=O`, the results for the inhibition in test [1] and in test [2] were 0% and 16.5%, respectively.

Take `CCCNC(=O)N(C1CC1)[C@H]1CC[C@H]2[C@@H]3CC[C@H]4N(C)C(=O)CC[C@]4(C)[C@H]3CC[C@]12C`: the inhibition in test [1] was determined as 12.9%; in test [2] it was 41.5%.

With `CCCCCN(C=O)[C@H]1CC[C@H]2[C@@H]3CC[C@H]4NC(=O)CC[C@]4(C)[C@H]3CC[C@]12C`, the results for the inhibition in test [1] and in test [2] were 35.2% and 89.1%, respectively.

`CCC1(CC)CC[C@@]2(CC[C@H]3[C@@H]4CCc5cc(O)ccc5[C@H]4CC[C@@]32C)OC1=O`: the inhibition came to 15.2% in test [1] and 39.6% in test [2].

As for `COC(=O)c1cc2c(cc1O)CC[C@@H]1[C@@H]2CC[C@@]2(C)[C@H]1CC[C@@]21CCC(C)(C)C(=O)O1`, the inhibition in test [1] is 21.1%; in test [2] it was 30%.

As to `C[C@]12CCC(=O)C(O)=C1CC[C@@H]1[C@@H]2CC[C@]2(C)C(=O)CC[C@@H]12`, the inhibition in test [1] is 8.1%; in test [2], 7.1%.

For `CC(C)NC(=O)N(C1CC1)[C@H]1CC[C@H]2[C@@H]3CC[C@H]4N(C)C(=O)CC[C@]4(C)[C@H]3CC[C@]12C`, the inhibition worked out at 16.5% in test [1] and 37.3% in test [2].

As for `CN1C(=O)CC[C@]2(C)[C@H]3CC[C@]4(C)[C@@H](NC(=O)C(C)(C)C)CC[C@H]4[C@@H]3CC[C@@H]12`, the inhibition came to 13.5% in test [1] and 55.9% in test [2].

For the molecule `C[C@]12CC[C@@H]3c4ccc(O)cc4CC[C@H]3[C@@H]1C[C@@H](CCBr)[C@@H]2O`, the inhibition in test [1] was 5.8%; in test [2], 4.5%.

For the molecule `CN1C(=S)CC[C@]2(C)[C@H]3CC[C@@]4(C)[C@@H](CC[C@@]45CCCC(=S)O5)[C@@H]3CC[C@@H]12`, the inhibition was 5.3% in test [1] and 36.5% in test [2].

In the case of `CCOc1ccc2c(c1)CC[C@@H]1[C@@H]2CC[C@@]2(C)[C@H]1CC[C@@]21CCC(C)(C)C(=O)O1`, the inhibition in test [1] came to 20.6%; in test [2], 29.3%.

Take `CCCN(C=O)[C@H]1CC[C@H]2[C@@H]3CC[C@H]4N(C)C(=O)CC[C@]4(C)[C@H]3CC[C@]12C`: the inhibition turned out to be 21.7% in test [1] and 56.3% in test [2].

With `CN1C(=O)CC[C@]2(C)[C@H]3CC[C@@]4(C)[C@@H](CC[C@@]4(O)C#CC(C)(C)I)[C@@H]3CC[C@@H]12`, the inhibition in test [1] was found to be 20.2%; in test [2] it was 72%.

For `CN1C(=O)CC[C@]2(C)[C@H]3CC[C@]4(C)[C@@H](N(C=O)C5CCCCC5)CC[C@H]4[C@@H]3CC[C@@H]12`, the inhibition turned out to be 23.9% in test [1] and 75.2% in test [2].

As for `CCCN(CC1C2CC3CC(C2)CC1C3)C[C@@]1(O)CC[C@@]2(C)[C@@H](CC[C@@H]3[C@@H]2CC[C@]2(C)C(=O)CC[C@@H]32)C1` (stereo not given in full), the figures for the inhibition in test [1] and in test [2] were 29% and 18.8%, respectively.

For the molecule `C[C@]12CC[C@@H](O)C[C@H]1CC[C@@H]1[C@@H]2CC[C@]2(C)[C@@H](O)CC[C@@H]12`, the inhibition in test [1] stood at 2.9%; in test [2], 6%.

As for `C=CC[C@@]1(O)CC[C@H]2[C@@H]3CC[C@H]4N(C)C(=O)CC[C@]4(C)[C@H]3CC[C@@]21C`, the inhibition in test [1] worked out at 13.3%; in test [2], 4.9%.

Regarding `CN1C(=O)CC[C@]2(C)[C@H]3CC[C@]4(C)[C@@H](N(C(=O)c5ccccc5)c5ccccc5)CC[C@H]4[C@@H]3CC[C@@H]12`, the figures for the inhibition in test [1] and in test [2] were 31.9% and 64.1%, respectively.

Turning to `CN(C(=O)NC1CCCCC1)[C@H]1CC[C@H]2[C@@H]3CC[C@H]4N(C)C(=O)CC[C@]4(C)[C@H]3CC[C@]12C`, the values for the inhibition in test [1] and in test [2] were 12.2% and 16.3%, respectively.

Take `CC1(C)CC[C@@]2(CC[C@H]3[C@@H]4CCc5c(cc(Cl)c(O)c5Cl)[C@H]4CC[C@@]32C)OC1=O`: the inhibition was found to be 20.2% in test [1] and 37% in test [2].

`CCCCCNC(=O)[C@H]1CC[C@H]2[C@@H]3CC[C@H]4N(C)C(=O)CC[C@]4(C)[C@H]3CC[C@]12C`: the figures for the inhibition in test [1] and in test [2] were 52.7% and 96.3%, respectively.

With `CCCCN(C)C(=O)C[C@@H]1Cc2cc(O)ccc2[C@H]2CC[C@@]3(C)[C@@H](CC[C@@]34CCC(=O)O4)[C@H]12`, the figures for the inhibition in test [1] and in test [2] were 17.1% and 15.5%, respectively.

Regarding `CCN(C(=O)c1ccccc1)[C@H]1CC[C@H]2[C@@H]3CC[C@H]4N(C)C(=O)CC[C@]4(C)[C@H]3CC[C@]12C`, the values for the inhibition in test [1] and in test [2] were 63.4% and 99.4%, respectively.

For the molecule `COCCOc1ccc2c(c1)CC[C@@H]1[C@@H]2CC[C@@]2(C)[C@H]1CC[C@@]21CCC(C)(C)C(=O)O1`, the values for the inhibition in test [1] and in test [2] were 23.8% and 52.3%, respectively.

For the molecule `CC(=O)C1CC[C@@]2(CC[C@H]3[C@@H]4CCc5cc(O)ccc5[C@H]4CC[C@@]32C)OC1=O` (stereo not given in full), the inhibition in test [1] is 2.1%; in test [2] it was 14.8%.

For `CC1CC(=O)O[C@]2(CC[C@H]3[C@@H]4CCc5cc(O)ccc5[C@H]4CC[C@@]32C)C1` (stereo not given in full), the inhibition in test [1] was determined as 14%; in test [2], 22.9%.

Regarding `C[C@]12C[C@H](O)[C@H]3[C@@H](CCC4=CC(=O)CC[C@@]43C)[C@@H]1CC[C@@H]2C(=O)CO`, the inhibition in test [1] is 8.1%; in test [2] it was 14.9%.

As to `O=c1oc2cc(O)ccc2c2oc3cc(O)ccc3c12`, the inhibition in test [1] turned out to be 5.5%; in test [2], 2.3%.

In the case of `CC1CC[C@@]2(CC[C@H]3[C@@H]4CCc5cc(O)ccc5[C@H]4CC[C@@]32C)OC1=O` (stereo not given in full), the inhibition in test [1] was 14.4%; in test [2] it was 32.1%.

For `CC(C)(C)NC(=O)[C@H]1CC[C@H]2[C@@H]3CC[C@H]4NC(=O)C=C[C@]4(C)[C@H]3CC[C@]12C`, the inhibition was determined as 3.7% in test [1] and 5.4% in test [2].

With `C[C@]12CC[C@H](O)CC1=CC[C@@H]1[C@@H]2CC[C@]2(C)C(=O)CC[C@@H]12`, the inhibition in test [1] was determined as 5.7%; in test [2] it was 12.1%.

On to `CN1C(=O)CC[C@]2(C)[C@H]3CC[C@]4(C)[C@@H](N(C(=O)NC5CCCCC5)C5CC5)CC[C@H]4[C@@H]3CC[C@@H]12`, for which the results for the inhibition in test [1] and in test [2] were 8.4% and 54.7%, respectively.

On to `CN1C(=O)CC[C@]2(C)[C@H]3CC[C@]4(C)[C@@H](N(C=O)Cc5ccccc5)CC[C@H]4[C@@H]3CC[C@@H]12`, for which the inhibition in test [1] worked out at 31.6%; in test [2], 77.6%.

For `CN1C(=O)CC[C@]2(C)[C@H]3CC[C@]4(C)[C@@H](N5CCCC5=O)CC[C@H]4[C@@H]3CC[C@@H]12`, the inhibition was 15.3% in test [1] and 15.1% in test [2].

In the case of `C[C@]12CC[C@@]3(C[C@H]1CC[C@@H]1[C@@H]2CC[C@]2(C)C(=O)CC[C@@H]12)CN(CC(CN1CCOCC1)OC(=O)CCC1CCCC1)C(=O)O3` (stereo not given in full), the inhibition is 18.9% in test [1] and 8.7% in test [2].

For the molecule `C[C@]12CC[C@@H]3c4ccccc4CC[C@H]3[C@@H]1CC[C@@]21CCCC(=O)O1`, the inhibition was determined as 6.1% in test [1] and 4.7% in test [2].

Consider `COc1ccc(N(C(=O)C(C)C)[C@H]2CC[C@H]3[C@@H]4CC[C@H]5N(C)C(=O)CC[C@]5(C)[C@H]4CC[C@]23C)cc1`, for which the inhibition came to 41.1% in test [1] and 99.8% in test [2].

Consider `C[C@@]12CCC[C@H]1[C@@H]1CCc3cc(O)ccc3[C@H]1CC2`, for which the results for the inhibition in test [1] and in test [2] were 4.5% and 6%, respectively.

For `C[C@]12CCC(=O)C=C1CC[C@@H]1[C@@H]2CC[C@@]2(C)[C@H]1CC[C@]2(O)C(=O)CO`, the inhibition in test [1] was 9.8%; in test [2] it was 0%.

Take `C[C@]12CCC(=O)C[C@@H]1CC[C@@H]1[C@@H]2CC[C@@]2(C)[C@H]1CC[C@@]21CCCC(=O)O1`: the inhibition came to 18.6% in test [1] and 30.9% in test [2].

As for `CC1(C)CC[C@@]2(CC[C@H]3[C@@H]4CCc5cc(C(=O)O)ccc5[C@H]4CC[C@@]32C)OC1=O`, the inhibition in test [1] worked out at 28.1%; in test [2], 20.9%.

As to `C[C@]12CC[C@@H]3c4ccc(O)cc4CC[C@H]3[C@@H]1CC[C@@]21CCCC(=O)O1`, the figures for the inhibition in test [1] and in test [2] were 0% and 13.8%, respectively.

`C[C@]12CC[C@](O)(Cc3ccccc3)C[C@@H]1CC[C@@H]1[C@@H]2CC[C@]2(C)C(=O)CC[C@@H]12`: the results for the inhibition in test [1] and in test [2] were 19.3% and 22.2%, respectively.

Take `CC(C)(C)NC(=O)[C@H]1CC[C@H]2[C@@H]3CC=C4C=C(Cl)CC[C@]4(C)[C@H]3CC[C@]12C`: the inhibition in test [1] was found to be 13.4%; in test [2] it was 56.8%.

In the case of `CCCCCN(C(=O)CCCC)[C@H]1CC[C@H]2[C@@H]3CC[C@H]4N(C)C(=O)CC[C@]4(C)[C@H]3CC[C@]12C`, the inhibition in test [1] was 27.3%; in test [2] it was 79.7%.

With `COc1cc2c(cc1S(N)(=O)=O)CC[C@@H]1[C@@H]2CC[C@@]2(C)[C@H]1CCC2(O)Cc1ccc(C(C)(C)C)cc1` (stereo not given in full), the inhibition in test [1] amounted to 0%; in test [2], 6.4%.

Turning to `C#C[C@]1(O)CC[C@H]2[C@@H]3CCc4cc(O)ccc4[C@H]3CC[C@@]21C`, the results for the inhibition in test [1] and in test [2] were 8.3% and 3.4%, respectively.

On to `O=C(c1ccc(OCN2CCCCC2)cc1)c1c(-c2ccc(O)cc2)sc2cc(O)ccc12`, for which the inhibition in test [1] and in test [2] was 0% each time.

Regarding `CC1(C)CC[C@@]2(CC[C@H]3[C@@H]4CCc5cc(O)c(I)cc5[C@H]4CC[C@@]32C)OC1=O`, the inhibition in test [1] was determined as 10%; in test [2], 24.9%.

(Values after ChEMBL document CHEMBL1154295, “Potent and selective steroidal inhibitors of 17beta-hydroxysteroid dehydrogenase type 7, an enzyme that catalyzes the reduction of the key hormones estrone and dihydrotestosterone” (J Med Chem, 2009).)
